Read-outs that look alike come from different tables or passages of the source.
Key:
[1] = system: hCMV; test: hCMV infection assay in ARPE-19 cells (infection level and DNA replication by high content microscopy); format: cell-based, human cytomegalovirus
Procedure: ARPE-19 human retinal pigmented epithelium cells were used for hCMV infection assay.
Cells were grown in DMEM without phenol red (Sigma-Aldrich) 10% SVF, Pen-strep, 1× sodium pyruvate, 1× Glutamax.
(§1) hCMV infection was carried out on ARPE-19 cells seeded in 96 wells plate, in duplicate at one or two MOI (multiplicity of infection) and 7 concentrations of FNO2Cor, TPFCor, TpNO2Cor. • D0: MRC5/ARPE-19 cells seeded at 6 k per well in Corning Glass Bottom 96 well plates in 200 μL of DMEM without phenol red. • D1: cells were treated with FNO2Cor, TpNO2Cor, TPFCor (from 50 to 0.1 μM by two fold dilutions) in duplicate for the toxicity study. • D3: ARPE-19 cells were treated with Ganciclovir, FNO2Cor, TpNO2Cor, TPFCor (from 5 to 0.07 μM or from 10 to 0.15 μM by two fold dilutions) and were infected at different MOI in duplicate: MOI 10 or 2 for ARPE-19 cells. • D7: ARPE-19 cells at MOI 10 4 d post-infection were fixed with Formalin 10 min at room temperature. Cells were washed with 200 μL PBS and 100 μL PBS/Hoechst® 33342 ( 1/1000) per well. 96 well plates were kept at 4° C. in the dark until data acquisition Image acquisition and analysis for high content quantification was performed on a Thermo Cellomics Arrayscan™ VTI microscope using a modified compartmental analysis algorithm. • D13: ARPE19 cells at MOI 2 10 days post-infection were fixed and image acquisition and analysis were performed as previously described.
On 4 d and 10 d post-infection (2 post-infection times), data acquisition per virus and cell line was done by high content microscopy to calculate infection level and DNA replication according to compound concentration.
Compounds FNO2Cor, TPFCor, TpNO2Cor and anti-hCMV drug Ganciclovir were assessed at 8 different concentrations in ARPE-19 cell culture on 4 days post-infection (FIGS. 2A, 2B) or on 10 days post-infection (FIGS. 3A, 3B) to evaluate their activity for inhibiting hCMV infection and their capacity for inhibiting hCMV replication in ARPE-19 cells.

[2] = Toxicity assessment (cytotoxicity) on ARPE-19 cells; format: cell-based, human; settings: human; ARPE-19 cells, 6 days of treatment, 0.1-50 μM tested
Procedure: as §1
(§2) The toxicity of compounds FNO2Cor or TPFCor on ARPE-19 cells was evaluated after 6 days of treatment. 10 concentrations (50, 25, 12.5, 6.25, 3.1, 1.5, 0.75, 0.5, 0.25, 0.1 μM) of FNO2Cor and TPFCor were studied. The compound TpNO2Cor was used as positive control. Cell culture without treatment was used as negative control.
(§3) Cytotoxicity of compounds FNO2Cor, TPFCor and TpNO2Cor were assessed at different concentrations on ARPE-19 cells according to the method described on section 1.3. TpNO2Cor worked as positive reference.

[3] = system: ARPE-19 cells; test: as above; format: cell-based, human; settings: for cytotoxicity (in words): ARPE-19 human retinal pigmented epithelium cells, FIG. 1 and Table I
Procedure: as §1, §2, §3

[4] = already known, Gros et al., 2015; cited from earlier work
[5] = Human betaherpesvirus 5, ARPE-19, 96 h, read-out: IC50 ARPE (infection inhibition)
[6] = Human betaherpesvirus 5, ARPE-19, 96 h, read-out: IC50 ARPE (replication inhibition)
[7] = Human betaherpesvirus 5, ARPE-19, 240 h, read-out: IC50 ARPE (infection inhibition)
[8] = Human betaherpesvirus 5, ARPE-19, 240 h, read-out: IC50 ARPE (replication inhibition)
[9] = Table V, head prints 4 d PI, text says 10 d PI

Row | Compound | Selectivity index (infection inhibition) ([1]; 4 d PI, Table III) | Selectivity index (replication inhibition) ([1]; 4 d PI, Table III) | IC50 [1, 5] [µM] | IC50 [1, 6] [µM] | IC50 [1, 7] [µM] | IC50 [1, 8] [µM] | Selectivity index (infection inhibition) [1, 9] | Selectivity index (replication inhibition) [1, 9] | CC50 at 6 days [2] [µM] | cytotoxicity (in words) [3] | IC50 ([1]; 4 d PI, MOI 10, ARPE-19 cells, read-out: IC50 ARPE (infection inhibition)) [µM] | IC50 ([1]; 4 d PI, MOI 10, ARPE-19 cells, read-out: IC50 ARPE (replication inhibition)) [µM] | IC50 ([1]; 10 d PI, MOI 2, ARPE-19 cells, read-out: IC50 ARPE (infection inhibition)) [µM] | CC50 [3] [µM] | cytotoxicity (in words) [4]
1 | Fc1c(F)c(F)c(-c2c3nc(c4ccc([nH]4)c(-c4c(F)c(F)c(F)c(F)c4F)c4ccc([nH]4)c(-c4c(F)c(F)c(F)c(F)c4F)c4ccc2[nH]4)C=C3)c(F)c1F [TPFCor, 5,10,15-Tris(pentafluorophenyl)corrole] | 7.38 | 16.28 | 3.53 | 1.6 | 0.96 | 12.3 | 27.04 | 2.12 | 26.1 | safe |  |  |  |  | 
2 | O=[N+]([O-])c1ccc(-c2c3nc(c4ccc([nH]4)c(-c4ccc([N+](=O)[O-])cc4)c4ccc([nH]4)c(-c4ccc([N+](=O)[O-])cc4)c4ccc2[nH]4)C=C3)cc1 [TpNO2Cor, 5,10,15-Tris(4-nitrophenyl)corrole, reference compound] |  |  |  |  |  |  |  |  |  |  | 3.98 | 8.34 | 1.79 | 25 | not cytotoxic
3 | O=[N+]([O-])c1ccc(F)c(-c2c3nc(c4ccc([nH]4)c(-c4cc([N+](=O)[O-])ccc4F)c4ccc([nH]4)c(-c4cc([N+](=O)[O-])ccc4F)c4ccc2[nH]4)C=C3)c1 [FNO2Cor, 5,10,15-Tris(2-fluoro-5-nitrophenyl)corrole] | 21.05 | 8.45 | 2.38 | 5.92 | 1.25 | 11.8 | 39.94 | 4.24 | 50 | safe |  |  |  |  | 

Source: US11395816B2, “Corroles for treating human cytomegalovirus infections” (UNIVERSITE DE BOURGOGNE, priority 2017, dated 2022)
